This passage reports EC50 results from patent publication US10201531B2, “Indazolyl-oxo-isothiazole compounds” (MOCHIDA PHARMACEUTICAL CO., LTD., priority 2015, dated 2019).

By EC50 is commonly meant the concentration at which the effect is half-maximal.

Each structure is given as a SMILES string.

For this assay, the system named is Nrf2. Briefly: Evaluation of Nrf2 activation ability (Nrf2d-LacZ / Keap1 HEK293 reporter, Beta-Glo luminescence). The assay is classed as cell-based, human. In short, it runs like this: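 HEK293 cells stably expressing a human Nrf2 degron–LacZ fusion plus human Keap1 were exposed to compound for 3 h at 37° C. Reporter β-galactosidase was read by Beta-Glo luminescence after 1 h at RT. Activation is given as % of the signal with 100 nM CDDO-Im.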

Where [1] appears, read: Pharmacological Test Example 1, rated A/B/C.
Where [2] appears, read: rated A/B/C, Pharmacological Test Example 1.

As for `[O-][s+]1nc(O)cc1-n1cc(-c2ccc(Oc3ccc(C(F)(F)F)cc3Cl)cc2)cn1` (stereo not shown) [Example 374], the concentration giving a half-maximal response (EC50) under setting [1] was 1 to 5 µM.
Same read-out and setting: for `Cc1cnc(-c2cnn(-c3cc(O)n[s+]3[O-])c2)c(C)n1` (stereo not shown) [Example 421] the value was 1 to 5 µM.
For the molecule `CC(=O)NC1(c2ccc(-c3ccc4c(cnn4-c4cc(O)n[s+]4[O-])c3)cc2)CC1` (stereo not shown) [Example 65], the EC50 under setting [2] lay within 5 to 10 µM.
Still for that read-out and setting: the value for `Cc1cncc(-c2cccc3c2cnn3-c2cc(O)n[s+]2[O-])c1` (stereo not shown) [Example 100] was 1 to 5 µM.
Same read-out and setting: for `[O-][s+]1nc(O)cc1-n1ncc2cc(-c3cnn4cccnc34)ccc21` (stereo not shown) [Example 225] the value was under 1 µM.
As to `[O-][s+]1nc(O)cc1-n1cc2cc(OCc3cccnc3)ccc2n1` (stereo not shown) [Example 445], under setting [1], the EC50 was in the range of 1 to 5 µM.
As to `[O-][s+]1nc(O)cc1-n1cc(-c2ccc(-c3ccccc3)cc2)cn1` (stereo not shown) [Example 327], the EC50 under setting [1] was 1 to 5 µM.
As for `[O-][s+]1nc(O)cc1-n1ncc2cc(F)ccc21` (stereo not shown) [Example 11], the concentration giving a half-maximal response (EC50) under setting [2] is 1 to 5 µM.
In turn, `CN1CCOc2cc(-c3ccc4c(cnn4-c4cc(O)n[s+]4[O-])c3)c(C#N)nc21` (stereo not shown) [Example 184] showed an EC50 under setting [2] of under 1 µM.
Same read-out and setting: for `[O-][s+]1nc(O)cc1-n1ncc2cc(-c3ccccc3)ncc21` (stereo not shown) [Example 233] the value was under 1 µM; for `COc1cc(-c2cnc3c(c2)OCCN3C)cc2c1cnn2-c1cc(O)n[s+]1[O-]` (stereo not shown) [Example 192], under 1 µM.
Same read-out and setting: the value for `[O-][s+]1nc(O)cc1-n1ncc2c1CN(Cc1cnc3ccccc3c1)C2` (stereo not shown) [Example 263] was 1 to 5 µM; that for `[O-][s+]1nc(O)cc1-n1ncc2cc(-c3cccc(C(F)F)n3)ccc21` (stereo not shown) [Example 116] was under 1 µM.
Turning to `COc1nc(Cl)ccc1-c1cnn(-c2cc(O)n[s+]2[O-])c1` (stereo not shown) [Example 440], the EC50 under setting [1] is under 1 µM.
`CC(C)N1CCOc2cc(-c3ccc4c(cnn4-c4cc(O)n[s+]4[O-])c3)cnc21` (stereo not shown) [Example 8] registered an EC50 under setting [2] of under 1 µM.
On to `Cn1ccc(-c2ccc3c(cnn3-c3cc(O)n[s+]3[O-])c2)n1` (stereo not shown) [Example 226], for which, under setting [2], the EC50 is under 1 µM.
Under setting [1], `COc1ccccc1-c1cnn(-c2cc(O)n[s+]2[O-])c1` (stereo not shown) [Example 387] yielded an EC50 of under 1 µM.
Same read-out and setting: the value for `Cn1ccc2c(-c3cnn(-c4cc(O)n[s+]4[O-])c3)cccc21` (stereo not shown) [Example 352] was under 1 µM.
For the molecule `COc1cc(Br)cc2c1cnn2-c1cc(O)n[s+]1[O-]` (stereo not shown) [Example 177], the EC50 under setting [2] is under 1 µM.
Turning to `[O-][s+]1nc(O)cc1-n1ncc2cc(-c3cnc(N4CCCCC4)cn3)ccc21` (stereo not shown) [Example 140], the EC50 under setting [2] was under 1 µM.
On the same count and under the same terms, the value for `CN1CCOc2ccc(-c3ccc4c(cnn4-c4cc(O)n[s+]4[O-])c3)nc21` (stereo not shown) [Example 178] was under 1 µM; that for `N#Cc1ccc2c(cnn2-c2cc(O)n[s+]2[O-])c1` (stereo not shown) [Example 19] was 1 to 5 µM; that for `[O-][s+]1nc(O)cc1-n1ncc2cc(-c3cccc(F)c3)ccc21` (stereo not shown) [Example 84] was under 1 µM.
Same read-out and setting: the value for `Cc1cnc(-c2ccc3c(cnn3-c3cc(O)n[s+]3[O-])c2)cn1` (stereo not shown) [Example 123] was under 1 µM.
On the same count and under the same terms, for `[O-][s+]1nc(O)cc1-n1ncc2cc(-c3cccc(CN4CCOCC4)c3)ccc21` (stereo not shown) [Example 77] the value was under 1 µM.
`N#CC1(c2ccc(-c3cnn(-c4cc(O)n[s+]4[O-])c3)cc2)CC1` (stereo not shown) [Example 369] gave an EC50 under setting [1] of 1 to 5 µM.
`O=C1CCCN1c1ccc(-c2ccc3c(cnn3-c3cc(O)n[s+]3[O-])c2)cn1` (stereo not shown) [Example 186] returned an EC50 under setting [2] of under 1 µM.
Still for that read-out and setting: for `[O-][s+]1nc(O)cc1-n1ncc2cc(C3=CCC(F)(F)CC3)ccc21` (stereo not shown) [Example 39] the value was under 1 µM; for `[O-][s+]1nc(O)cc1-n1ncc2cc(-c3cccnc3)ccc21` (stereo not shown) [Example 54], under 1 µM.
Take `[O-][s+]1nc(O)cc1-n1cc(C2=Cc3ccccc3C2)cn1` (stereo not shown) [Example 345]: the EC50 under setting [1] was under 1 µM.
Same read-out and setting: the value for `[O-][s+]1nc(O)cc1-n1cc(-c2ccc3c(c2)CCCC3)cn1` (stereo not shown) [Example 342] was under 1 µM.
For the molecule `[O-][s+]1nc(O)cc1-n1ncc2cc(-c3cncc(N4CCCC4)c3)ccc21` (stereo not shown) [Example 135], the concentration giving a half-maximal response (EC50) under setting [2] is under 1 µM.
In turn, `Cn1ncc2c(-c3cnn(-c4cc(O)n[s+]4[O-])c3)cccc21` (stereo not shown) [Example 360] returned an EC50 under setting [1] of under 1 µM.
Still for that read-out and setting: for `CNc1ccc(-c2cnn(-c3cc(O)n[s+]3[O-])c2)cn1` (stereo not shown) [Example 400] the value was 1 to 5 µM.
With `COc1cc(C)c2cnn(-c3cc(O)n[s+]3[O-])c2c1` (stereo not shown) [Example 196], the EC50 under setting [2] lay within 1 to 5 µM.
`Cc1cncc(-c2ccc3cnn(-c4cc(O)n[s+]4[O-])c3c2)c1` (stereo not shown) [Example 113] had an EC50 under setting [2] of 5 to 10 µM.
Still for that read-out and setting: the value for `COc1ccc(-c2ccc3c(cnn3-c3cc(O)n[s+]3[O-])c2)cn1` (stereo not shown) [Example 86] was under 1 µM.
With `COc1ccc(-c2cnn(-c3cc(O)n[s+]3[O-])c2)c(C)n1` (stereo not shown) [Example 402], under setting [1], the EC50 is 1 to 5 µM.
Same read-out and setting: for `[O-][s+]1nc(O)cc1-n1cc(CCOc2ccccc2)cn1` (stereo not shown) [Example 329] the value was 1 to 5 µM; for `[O-][s+]1nc(O)cc1-n1cc(-c2ccc3c(c2)OCCO3)cn1` (stereo not shown) [Example 346], 1 to 5 µM.
The same measure, in the same setting: the value for `[O-][s+]1nc(O)cc1-n1cc(-c2ccc(F)nc2)cn1` (stereo not shown) [Example 438] was 1 to 5 µM.
On to `[O-][s+]1nc(O)cc1-n1ncc2cc(-c3cncc(N4CCCC4)n3)ccc21` (stereo not shown) [Example 141], for which the EC50 under setting [2] is under 1 µM.
Under setting [2], `O=C(NC1CCCCC1)N1CCC(c2ccc3c(cnn3-c3cc(O)n[s+]3[O-])c2)CC1` (stereo not shown) [Example 159] returned an EC50 of 5 to 10 µM.
As for `Cn1c(=O)oc2cc(-c3cnn(-c4cc(O)n[s+]4[O-])c3)ccc21` (stereo not shown) [Example 424], the EC50 under setting [1] is 5 to 10 µM.
Molecule `[O-][s+]1nc(O)cc1-n1ncc2cc(-c3cnc4c(c3)OCCN4C3CC3)ccc21` (stereo not shown) [Example 149] had an EC50 under setting [2] of under 1 µM.
For the molecule `[O-][s+]1nc(O)cc1-n1cc(-c2cccc(C(F)(F)F)c2)cn1` (stereo not shown) [Example 367], the 50% effective concentration (EC50) under setting [1] is under 1 µM.
As to `COc1cc(Br)c2cnn(-c3cc(O)n[s+]3[O-])c2c1` (stereo not shown) [Example 9], under setting [2], the 50% effective concentration (EC50) is 1 to 5 µM.
Still for that read-out and setting: the value for `CC(C)(C)OC(=O)N1Cc2cnn(-c3cc(O)n[s+]3[O-])c2C1` (stereo not shown) [Example 245] was 1 to 5 µM.
The same measure, in the same setting: the value for `[O-][s+]1nc(O)cc1-n1ncc2cc(-c3ccc(Oc4ccccc4)cc3)ccc21` (stereo not shown) [Example 74] was under 1 µM.
`CN(C)Cc1ccc(-c2cnn(-c3cc(O)n[s+]3[O-])c2)cc1` (stereo not shown) [Example 405] came in with an EC50 under setting [1] of 1 to 5 µM.
With `Cc1cncc(-c2ccc3c(cnn3-c3cc(O)n[s+]3[O-])c2)c1` (stereo not shown) [Example 49], the concentration giving a half-maximal response (EC50) under setting [2] was under 1 µM.
For `[O-][s+]1nc(O)cc1-n1cc(-c2cnc3ccccc3n2)cn1` (stereo not shown) [Example 408], under setting [1], the EC50 is under 1 µM.
`[O-][s+]1nc(O)cc1-n1ncc2cc(-c3cccc(N4CCCC4)n3)ccc21` (stereo not shown) [Example 138]: the half-maximal effective concentration (EC50) under setting [2] was under 1 µM.
Turning to `COc1ccc(-c2cnn(-c3cc(O)n[s+]3[O-])c2)c(OC)n1` (stereo not shown) [Example 399], the concentration for a half-maximal effect (EC50) under setting [1] was under 1 µM.
Same read-out and setting: for `[O-][s+]1nc(O)cc1-n1cc(-n2cccn2)cn1` (stereo not shown) [Example 422] the value was 5 to 10 µM.
Turning to `[O-][s+]1nc(O)cc1-n1ncc2ccncc21` (stereo not shown) [Example 231], the EC50 under setting [2] lay in the range of 5 to 10 µM.
Same read-out and setting: the value for `CN1CCOc2cc(-c3ccc4c(c3)c(Cl)nn4-c3cc(O)n[s+]3[O-])cnc21` (stereo not shown) [Example 169] was under 1 µM.
For `[O-][s+]1nc(O)cc1-n1ncc2cc(-c3ccc(C(F)(F)F)cn3)ccc21` (stereo not shown) [Example 132], the EC50 under setting [2] was under 1 µM.
